Measurements taken from paper PMC12615485, “New dengue virus inhibitors targeting NS3-NS5 interaction identified by in silico screening” (Frontiers in Microbiology, 2025).
“Also recorded” adds a separate entry of the source. Where two headings read alike, the source gives them in different places.

Columns and labels:
[1] = molecular target: NS3-hel (NHS-NS3_177–618) (Dengue virus type 2, UniProt P14340); assay: Microscale thermophoresis (MST) binding to labeled NS3-hel; set-up: species or system DENV-2; conditions: same test concentrations (serial dilutions from 250 μM), 60% LED power
From the text: (§1) To obtain the purified helicase portion of NS3 (6His-NS3_177–618) and the main protease of SARS-CoV-2 (6His-M^pro) used for the MST analysis, we followed previously described protocols ([Celegato et al., 2023]; [Mercorelli et al., 2022]). The 6His–NS5 RdRp270–900 protein was expressed and purified as described above. For MST studies, 6His-NS5_270–900, 6His-NS3_177–618, and 6His-M^pro were fluorescently labeled using NanoTemper Protein labeling kit RED-NHS 2nd generation (MO-L011, NanoTemper Technologies GmbH, Munich, Germany). Protein and dye concentrations were determined by absorption spectroscopy using NanoDrop™ One spectrophotometer (ThermoFisher Scientific), considering, at 280 nm, ε = 171,350 M^–1cm^1 for recombinant NS5, ε = 66,140 M^–1cm^1 for NS3, ε = 32,890 M^–1cm^1 for M^pro, respectively. The ε = 195,000 M^1cm^1 at 650 nm was considered for the RED-NHS fluorophore, with a correction factor of 0.04. The degree of labeling (DOL) was calculated according to the manufacturer’s instructions, yielding a value of 0.63 for NHS-NS5, 0.98 for NHS-NS3, and 0.60 for NHS-M^pro, respectively. […] In all experiments, signal quality was monitored by the Monolith device to detect possible ligand auto-fluorescence, aggregation, or target protein adsorption to capillaries. Experiments were performed in triplicates and analyzed with the MO. […]

Vero cells = assay: MTT cytotoxicity assay; conditions: read-out: Cytotoxicity CC50; best analogues of hit 3, in-house synthesized hit 3 as control; MTT in Vero cells at 72 h
MTT cytotoxicity assay = conditions: African green monkey, Vero cells
SARS-CoV-2 M^pro = SARS-CoV-2 M^pro (Severe acute respiratory syndrome coronavirus 2, UniProt P0DTD1); conditions: MST binding check, up to 125 μM compound concentration
[2] = molecular target: NS3-NS5 interaction (NS3 f.l. binding to coated 6His-NS5_270–900) (Dengue virus type 2, UniProt P14340); assay: ELISA-based NS3-NS5 interaction assay; set-up: species or system DENV-2; conditions: for IC50: read-out: In vitro activity IC50
Method: Nunc Maxisorp microplates (Thermo Fisher Scientific) were coated with 400 ng/well of 6His-NS5_270–900, or GST protein as a control, in PBS for 3 h at 37 °C and then blocked with 5% (wt/v) bovine serum albumin (BSA, Merck Life Science) in PBS overnight at 4 °C. Blocked wells were incubated at room temperature (RT) for 2 h with increasing amounts of NS3 f.l. or GST–NS3_172–618. 6His-NS5_270–900-coated plates were also incubated with increasing concentration of GST, as a control. After washing with PBS containing 0.3% Tween 20 (Fisher Scientific, Waltham, MA, United States), the NS3-NS5 interaction was detected by incubating the plates with the anti-NS3 monoclonal antibody (GT2811 clone, Genetex, Irvine, CA, United States) diluted 1:6,000 in PBS + 2% (v/v) FBS (Thermo Fisher Scientific) for 1 h at RT. The unbound primary antibody was removed by further washes with PBS + 0.3% Tween 20 and the secondary goat anti-mouse HRP-conjugated antibody (GenScript Biotech) at a dilution of 1:8,000 in PBS + 2% FBS was then added. After incubation for 1 h at RT and following washes, the colorimetric substrate 3,3′,5,5′-tetramethylbenzidine (TMB, SeraCare Life Sciences, Milford, MA, United States) was added to each well and absorbance was read at 450 nm by an ELISA plate reader (Tecan Infinite 200 PRO, Mannedorf, Switzerland).
To test the inhibitory effect of compounds on NS3-NS5 interaction, 6His-NS5_270–900-coated wells were incubated with a fixed amount of NS3 f.l. (200 ng) along with increasing concentrations of test compounds or DMSO as a control. To exclude non-specific inhibition of compounds due to colloidal aggregation, the inhibitory activities of compounds were tested in the presence or the absence of 0.002% Triton X-100 (Fisher Scientific), a condition which reverses and prevents the colloidal formation of organic molecules ([McGovern et al., 2003]). All the compound concentrations were tested at least in duplicate.

DENV-4 (H-241 strain) = assay: Viral RNA reduction assay (RT-qPCR) in Vero cells; assay type: cell-based; conditions: DENV-4, Vero cells, RT-qPCR at 72 h p.i.
Method: (§2) For viral RNA reduction assays with DENV serotypes 1 to 4, Vero cells were seeded at a density of 1 × 10^5 cells per well in 24-well plates. The next day, cells were infected at 37 °C with the different viruses in serum-free DMEM at the multiplicity of infection (MOI) of 0.001 and plates were rocked every 15 min. At the end of incubation, the viral inoculum was removed, and medium with 2% FBS containing various concentrations of test compounds was added. Viral RNA was isolated from the culture supernatant at 72 h p.i., using the PureLink Viral RNA/DNA Mini kit (Invitrogen, Waltham, MA, United States), according to the manufacturer’s instructions. Viral RNA was quantified using the One-Step RT-PCR kit Dengue Virus subtypes 1, 2, 3 and 4 PCRmax (Cole Parmer Instrument, Saint Neots, United Kingdom), according to the manufacturer’s instructions, on a 7,000 Real-time PCR platform (Applied Biosystems, Waltham, MA, United States).

DENV-2 (NGC strain) = assay: Viral RNA reduction assay (RT-qPCR) in Vero cells; assay type: cell-based; conditions: DENV-2, Vero cells, RT-qPCR at 72 h p.i.
Method: as §2

DENV-3 (H-87 strain) = assay: Viral RNA reduction assay (RT-qPCR) in Vero cells; assay type: cell-based; conditions: DENV-3, Vero cells, RT-qPCR at 72 h p.i.
Method: as §2

DENV-1 (TH-Sman strain) = assay: Viral RNA reduction assay (RT-qPCR) in Vero cells; assay type: cell-based; conditions: DENV-1, Vero cells, RT-qPCR at 72 h p.i.
Method: as §2

[3] = molecular target: NS5-RdRp (NHS-NS5_270–900) (Dengue virus type 2, UniProt P14340); assay: Microscale thermophoresis (MST) binding to labeled NS5-RdRp; set-up: species or system DENV-2; conditions: medium MST power, 40% LED power
From the text: as §1

DENV-2 NGC strain = assay: Plaque reduction assay (PRA) in Vero cells; assay type: cell-based; conditions: for EC50: PRA in Vero cells, read-out: Antiviral activity EC50; for SI (selectivity index): ratio between CC50 and EC50

Cc1ccc(NC(=S)NNC(=O)c2ccccc2O)cc1 [Hit 3]
binding to NS3-hel [1]: not able to detect the binding; also recorded: no binding was observed | CC50 (Vero cells): > 250 µM | CC50 at 72 h (MTT cytotoxicity assay): > 250 µM | binding to SARS-CoV-2 M^pro (SARS-CoV-2 M^pro): No binding was detected | IC50 ([2]; analogues of hit 3, in-house synthesized hit 3 as control, 50% inhibition of NS3-NS5 binding in ELISA): 19.4 ± 7.8 µM | inhibition at 100 µM ([2]; fixed concentration of 100 μM, compared with DMSO control): ≥ 50% | IC50 ([2]; selected hits, concentration that decreased the NS3-NS5 binding by 50% in ELISA): 15.6 ± 4.5 µM | viral RNA synthesis (DENV-4 (H-241 strain)): concentration-dependent reduction in viral RNA synthesis | viral RNA synthesis (DENV-2 (NGC strain)): concentration-dependent reduction in viral RNA synthesis | viral RNA synthesis (DENV-3 (H-87 strain)): concentration-dependent reduction in viral RNA synthesis | viral RNA synthesis (DENV-1 (TH-Sman strain)): concentration-dependent reduction in viral RNA synthesis | Kd [3]: 28.8 ± 4.5 µM | EC50 (DENV-2 NGC strain; Dengue virus, DENV2, Vero, best analogues of hit 3, in-house synthesized hit 3 as control, NGC strain): 1.8 ± 0.6 µM | EC50 (DENV-2 NGC strain; Dengue virus, DENV2, Vero, selected hits, 50% inhibition of viral plaque formation, DENV-2): 1.93 µM | SI (selectivity index) (DENV-2 NGC strain; best analogues of hit 3): >130 | EC50 (DENV-2 NGC strain; selected hits, 50% inhibition of viral plaque formation, DENV-2): 1.9 ± 0.3 µM | SI (selectivity index) (DENV-2 NGC strain; selected hits): >130
